By Kd is commonly meant the constant that tells how readily two partners part at equilibrium.

This note sets out measurements from US20260183411A1, “TARGETING SORTILIN” (priority 2024, published 2026).

Bridges are numbered along the chain shown (N, C = ends). Where no end group is shown, it is not given here. [ ]: non-standard residue; d: D form. conjugation handle = not defined here; tBuAla = CC(C)(C)C[C@H](N)C(=O)O; Tle = CC(C)(C)[C@H](N)C(=O)O; Nle = CCCC[C@H](N)C(=O)O

The test system of test [1] is housekeeping gene mRNA. Kind of test: Mouse CNS delivery, intrathecal, 7-day (RT-qPCR). It counts as in vivo. The following applies: IT dosing. The protocol: These conjugates were administered to C57BL/6 mice intrathecally (IT), by injection into the spinal canal, for 7 days at 150 μg of siRNA. The delivery efficacy of the various peptide conjugates was measured by measuring the amount of the housekeeping gene mRNA remaining in tissue samples at the end of the 7-day dosing regimen via RT-qPCR of samples from various parts of the mouse CNS: lumbar spinal cord (LSC; FIG. 24A), brainstem (BS; FIG. 24B), cerebellum (CB; FIG. 24C), frontal cortex (FC; FIG. 24D), somatosensory cortex (SSC; FIG. 24E), hippocampus (HC; FIG. 24F), thalamus (TH;
FIG. 24G), liver (FIG. 24H), and heart (FIG. 24I). 7 days post-injection mice were sacrificed, and tissues collected (brain, spinal cord, heart, liver). Tissues were flash frozen and prepared for RT-qPCR detection of target housekeeping gene mRNA knockdown (quantified below in Table 19). Furthermore, histological studies were performed in the brain and cervical spinal cord. In situ hybridization using miRNAscope and a probe that binds the housekeeping gene siRNA was used to assess the localization of the SORT1 peptide conjugates in cross sections of the brain and cervical spinal cord.
To characterize the amount of mRNA present in tissue samples following 7 days from mice treated with SORT1 peptide conjugates, control mice were injected with an equivalent volume of artificial cerebrospinal fluid (aCSF) as a comparative negative control.

Test [2] deals with housekeeping gene mRNA. Kind of test: Rat CNS delivery, intrathecal, 28-day (RT-qPCR). It counts as in vivo. The following applies: IT, 900 μg siRNA. The protocol:
SORT1 peptide 3 conjugate was prepared as described above. The SORT1 peptide 3 conjugate or a benchmark lipid were administered to rats intrathecally (IT), by injection into the spinal cord, for 28 days at 900 μg of siRNA. The delivery efficacy of the SORT1 peptide 3 conjugate was measured by measuring the amount of the housekeeping gene mRNA remaining in tissue samples at the end of the 28-day dosing regimen via RT-qPCR of samples from various parts of the rat CNS: lumbar spinal cord (LSC), cervical spinal cord (CSC), brainstem (BS), cerebellum (CB), somatosensory cortex (SSC), frontal cortex (FC), hippocampus (HC), thalamus (TH), liver, and heart. 28 day post-injection rats were sacrificed, and tissues collected (brain, spinal cord, heart, liver). Tissues were flash frozen and prepared for RT-qPCR detection of target housekeeping gene mRNA knockdown.
To characterize the amount of mRNA present in tissue samples from rats treated with SORT1 peptide 3 conjugates following the 28-day dosing regimen, control rats were injected with an equivalent volume of artificial cerebrospinal fluid (aCSF) as a comparative negative control.

Test [3] deals with housekeeping gene mRNA. The test can be described thus: Mouse CNS delivery, intracerebroventricular, 14/60-day (RT-qPCR). It counts as in vivo. The following applies: for ICV % housekeeping gene knockdown relative to aCSF: 14-day, ICV dosing. The protocol: The delivery of the SORT1 peptide conjugates was further tested over longer dosing regimens of 14 days and 60 days. […] The delivery of the siRNA-peptide-conjugated was measured at the end of the 14- or 60-day dosing regimen via RT-qPCR of samples from various parts of the mouse CNS: lumbar spinal cord (LSC; FIGS. 25A and 25B), brainstem (BS; FIGS. 25C and 25D), cerebellum (CB; FIGS. 25E and 25F), frontal cortex (FC; FIGS. 26A and 26B), somatosensory cortex (SSC; FIGS. 26C and 26D), hippocampus (HC; FIGS. 26E and 26F), thalamus (TH; FIGS. 27A and 27B), liver (FIGS. 27C and 27D), and heart (FIGS. 27E and 27F). 14- and 60-days post-injection mice were sacrificed, and tissues collected (brain, spinal cord, heart, liver). Tissues were flash frozen and prepared for RT-qPCR detection of target housekeeping gene mRNA knockdown (quantified below in Table 20).
In general terms: In qPCR the cycle at which signal appears reflects the starting amount.

Another test addresses T1, Human SORT1 (78-755)-His (human, UniProt Q99523 78-755).
T1 construct: range 78-755; Amine-coupled to CM5 chip for SPR; Two suppliers are named (Acrobiosystems, GenScript)
T1 sequence (looked up): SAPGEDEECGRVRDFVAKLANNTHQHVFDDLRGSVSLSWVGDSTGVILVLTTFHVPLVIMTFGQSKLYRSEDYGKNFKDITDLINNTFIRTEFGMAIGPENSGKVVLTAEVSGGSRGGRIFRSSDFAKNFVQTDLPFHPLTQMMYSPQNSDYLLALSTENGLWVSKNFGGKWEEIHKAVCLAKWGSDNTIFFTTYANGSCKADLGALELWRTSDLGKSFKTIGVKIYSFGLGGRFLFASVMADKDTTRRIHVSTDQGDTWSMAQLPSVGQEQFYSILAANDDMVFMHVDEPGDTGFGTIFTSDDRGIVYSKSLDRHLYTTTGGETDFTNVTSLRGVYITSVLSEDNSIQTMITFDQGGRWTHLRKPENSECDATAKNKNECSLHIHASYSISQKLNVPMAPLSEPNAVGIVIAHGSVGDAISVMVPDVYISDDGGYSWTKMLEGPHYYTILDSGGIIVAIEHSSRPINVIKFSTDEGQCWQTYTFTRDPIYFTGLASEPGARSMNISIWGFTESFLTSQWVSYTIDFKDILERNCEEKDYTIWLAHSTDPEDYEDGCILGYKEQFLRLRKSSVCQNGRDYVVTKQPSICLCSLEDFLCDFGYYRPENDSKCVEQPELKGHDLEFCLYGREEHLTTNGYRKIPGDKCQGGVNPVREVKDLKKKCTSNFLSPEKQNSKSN
The test can be described thus: SPR (Biacore 8K), SORT1 on CM5 chip, unconjugated peptide with conjugation handles as analyte, 1:1 model. The protocol:
(§1) SPR analysis was performed on Series S CM5 chips (Cytiva) using a Biacore 8K instrument (Cytiva). Sensorgrams were double-referenced by subtracting the response on both a reference flow cell and a blank sample. Human SORT1 (78-755)-His (Acrobiosystems), human SORT1 (78-755)-His(GenScript), mouse SORT1 (76-753)-His (R&D Systems), rat SORT1 (76-752)-His (GenScript), and cyno SORT1 (76-753)-His (GenScript) were diluted to 20-60 μg/mL in 10 mM sodium acetate pH 4.5 buffer and immobilized onto Series S CM5 chips using amine coupling at a flow rate of 10 μL/min for 45-100 s.
(§2) Ten start-up cycles and a blank cycle preceded each analysis run. The runs were performed by sequential injections of analyte (0-20 nM, 3-fold serial dilutions) with a 90 s association and 900 s dissociation at a flow rate of 30 μL/min, followed by two regeneration cycles with 2 M MgCl2 for 90 s at a flow rate of 10 μL/min. […] Five start-up cycles and a blank cycle preceded each analysis run. The runs were performed by sequential injections of analyte (0-25 nM) with a 150 seconds (s) association and 300 s dissociation at a flow rate of 30 μL/min, followed by a regeneration with 2 M MgCl₂ for 200 s at a flow rate of 10 μL/min. The kinetic rate constants (kₐ and kd) and the equilibrium binding constant (Kd) were calculated using a 1:1 kinetic binding model on the Biacore Insight Evaluation Software (Cytiva).
(§3) SPR analysis was performed on Series S CM5 chips (Cytiva) using a Biacore 8K instrument (Cytiva). Sensorgrams were double-referenced by subtracting the response on both a reference flow cell and a blank sample. The SPR analysis was conducted using four different SORT1 species: Human SORT1, Mouse SORT1, Rat SORT1, and Cyno SORT1. The samples were prepared according to the general procedure described above herein. The kinetic rate constants (ka and […]) and the equilibrium binding constant (Kd) were calculated using a 1:1 kinetic binding model on the Biacore Insight Evaluation Software (Cytiva).

The target of another test is T2, rat SORT1 (76-752)-His (rat, UniProt O54861 76-752).
T2 construct: range 76-752; Amine-coupled to CM5 chip for SPR
T2 sequence (looked up): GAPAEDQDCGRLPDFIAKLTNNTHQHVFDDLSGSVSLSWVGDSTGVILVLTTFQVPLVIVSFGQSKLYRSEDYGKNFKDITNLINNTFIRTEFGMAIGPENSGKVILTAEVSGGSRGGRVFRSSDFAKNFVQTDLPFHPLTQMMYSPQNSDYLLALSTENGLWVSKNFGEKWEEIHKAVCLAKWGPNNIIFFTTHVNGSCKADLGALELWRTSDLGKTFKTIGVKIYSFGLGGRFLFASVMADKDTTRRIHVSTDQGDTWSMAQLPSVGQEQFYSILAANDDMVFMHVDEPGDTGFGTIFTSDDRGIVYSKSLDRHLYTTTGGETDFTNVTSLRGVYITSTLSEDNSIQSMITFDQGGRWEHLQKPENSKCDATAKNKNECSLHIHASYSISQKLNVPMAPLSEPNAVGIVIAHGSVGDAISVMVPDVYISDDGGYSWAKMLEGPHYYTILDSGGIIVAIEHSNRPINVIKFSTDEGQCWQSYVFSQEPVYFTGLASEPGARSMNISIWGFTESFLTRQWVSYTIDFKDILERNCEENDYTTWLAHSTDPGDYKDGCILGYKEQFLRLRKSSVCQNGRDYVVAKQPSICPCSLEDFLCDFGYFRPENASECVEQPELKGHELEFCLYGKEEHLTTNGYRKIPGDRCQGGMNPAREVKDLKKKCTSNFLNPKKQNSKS
The description is as above. As for the experimental part: as §1, §2, §3

The next test addresses T3, cyno SORT1 (76-753)-His (cyno, UniProt A0A2K5VHG2 74-751).
T3 construct: range 76-753; Amine-coupled to CM5 chip for SPR
T3 sequence: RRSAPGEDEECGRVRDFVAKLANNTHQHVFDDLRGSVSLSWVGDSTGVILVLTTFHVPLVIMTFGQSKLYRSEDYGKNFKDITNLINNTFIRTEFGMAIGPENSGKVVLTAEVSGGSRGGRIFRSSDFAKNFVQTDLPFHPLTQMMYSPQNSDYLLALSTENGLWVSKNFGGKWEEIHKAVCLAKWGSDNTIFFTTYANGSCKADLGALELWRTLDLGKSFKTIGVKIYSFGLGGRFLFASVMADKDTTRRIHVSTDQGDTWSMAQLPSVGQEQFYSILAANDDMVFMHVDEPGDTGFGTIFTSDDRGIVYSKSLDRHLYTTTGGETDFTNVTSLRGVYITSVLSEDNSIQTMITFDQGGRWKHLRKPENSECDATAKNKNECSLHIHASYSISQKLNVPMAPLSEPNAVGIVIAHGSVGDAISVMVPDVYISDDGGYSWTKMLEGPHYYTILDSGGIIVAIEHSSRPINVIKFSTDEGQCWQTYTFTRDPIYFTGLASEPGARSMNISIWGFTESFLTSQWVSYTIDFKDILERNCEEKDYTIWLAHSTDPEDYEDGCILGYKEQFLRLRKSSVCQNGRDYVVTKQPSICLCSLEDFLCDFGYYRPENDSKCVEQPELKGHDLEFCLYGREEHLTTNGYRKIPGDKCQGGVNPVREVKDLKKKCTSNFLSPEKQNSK
The description is as above. The protocol:
as §1, §2, §3

As for “SORT1 peptide 3 conjugate (RWCENKR[Nle]FTCRQ[Tle][tBuAla]; disulfide 3-11 (inferred); not fully specified (residue 6); printed as RWCENKR(Nle)FTCRQ(B13)(F02); also: conjugated via a linker to siRNA targeting a housekeeping gene mRNA, attachment presumably at the introduced Lys)”, the “IT % housekeeping gene knockdown relative to aCSF” value was determined as 77.0% with housekeeping gene mRNA [1] (BS); 53.6% with housekeeping gene mRNA [1] (CB); 50.1% with housekeeping gene mRNA [1] (FC); 66.6% in the test with housekeeping gene mRNA [1] (HC (deep brain)); 47.0% with housekeeping gene mRNA [1] (Heart); 94.7% with housekeeping gene mRNA [1] (LSC, 150 μg siRNA). For the same molecule, the entries for the “IT % housekeeping gene knockdown relative to aCSF” value in the test with housekeeping gene mRNA [1] (Liver), in the test with housekeeping gene mRNA [1] (SSC) and in the test with housekeeping gene mRNA [1] (TH (deep brain)) were 0.0%, 61.4% and 33.4%, respectively. The “housekeeping gene mRNA in the CNS relative to the aCSF control” value in the test on housekeeping gene mRNA [2] was “significantly reduced”. Moreover, the “ICV % housekeeping gene knockdown relative to aCSF” value amounted to 79.6% in the test on housekeeping gene mRNA [3] (BS); 66.6% in the test with housekeeping gene mRNA [3] (CB); 72.6% in the test with housekeeping gene mRNA [3] (FC); 72.1% in the test on housekeeping gene mRNA [3] (HC (deep brain)); 7.9% in the test with housekeeping gene mRNA [3] (Heart); 84.8% in the test on housekeeping gene mRNA [3] (LSC, 100 μg siRNA). Also, the “ICV % housekeeping gene knockdown relative to aCSF” value is on record as 8.7% in the test on housekeeping gene mRNA [3] (Liver), 72.6% with housekeeping gene mRNA [3] (SSC) and 76.2% with housekeeping gene mRNA [3] (TH (deep brain)). In the test with housekeeping gene mRNA [3] (ICV, after 14 days), the “knockdown of the target gene in peripheral tissues (heart and liver) relative to aCSF” value was “No significant knockdown”.

B1: SORT1 peptide 3 (w/conjugation handles), unconjugated (peptide)
peptide: RWCENK(conjugation handle)R[Nle]FTCRQ[Tle][tBuAla]
modifications: disulfide 3-11 (inferred); reading uncertain; also: K6 conjugation handle not given here, printed as RWCENKR(Nle)FTCRQ(B13)(F02)
For the molecule B1, the Kd worked out at 0.168 nM with Human SORT1 (78-755)-His, 1.16 nM with rat SORT1 (76-752)-His and 0.191 nM in the test with cyno SORT1 (76-753)-His.
